The values that follow come from paper PMC6801739, “Antitumor Activity of a Novel Tyrosine Kinase Inhibitor AIU2001 Due to Abrogation of the DNA Damage Repair in Non-Small Cell Lung Cancer Cells” (International Journal of Molecular Sciences, 2019).

Common to all, as to type: cell-based, human
Assay [1] deals with A549 cells. The experiment in a line: MTT cell viability assay, single drugs and combinations, CI scores. As to the method: (§1) Cell viability was assessed using the MTT colorimetric assay. Cells (1 × 10^3 cells/well) were seeded into 96-well plates and treated with the various concentrations of each compound or combination of two compounds. After five days of treatment, 10 μL MTT (0.5 mg/mL) was added, and further incubated for 3 h. After removal of the supernatant, the resultant pellet was dissolved in DMSO. The absorbance of the resultant formazan was measured at 540 nm using a plate reader (Multiskan EX; ThermoLabsystems, Waltham, MA, USA).
(§2) CI scores were calculated using the CompuSyn software by Chou (CompuSyn Inc., Paramus, NJ) based on cell viability after treatment with single- and paired-drug concentrations. The CI equation for two drugs was used: CI=(D)A/(Dx)A+(D)B/(Dx)B where (Dx)A is the concentration of drug A alone that inhibits x%, (Dx)B is the concentration of drug B alone that inhibits x%, (D)A or (D)B is the portion of drug A or drug B in the combination (D)A + (D)B that inhibits x%.
In general terms: Formazan colour is commonly taken as a measure of viable cells.

Assay [2] has as its system H1299 cells. The description is as above. The procedure:
as §1, §2

For another assay, the system named is BEAS2B cells. The experiment in a line: MTT cell viability assay. The conditions noted are these: BEAS2B normal bronchial epithelial cells, five days. The procedure:
as §1

In another assay the test system is CCD18-Lu cells. The experiment in a line: MTT cell viability assay. The conditions noted are these: CCD18-Lu lung fibroblast cells, five days. As to the method: as §1
The subject of another assay is H460 cells. The experiment in a line: MTT cell viability assay. The conditions noted are these: five days. The procedure:
as §1

Assay [3] has as its system A549 cells. The experiment in a line: qPCR of DNA damage repair genes and STAT5 mRNA. The conditions noted are these: 24 h. From the text:
(§3) RNA was extracted using TRIzol® RNA isolation reagent (ThermoFisher Scientific). RNA was reverse-transcribed into cDNA using the M-MLV reverse transcriptase (Enzynomics, Daejeon, Korea) and RNase inhibitor (Promega, Madison, WI, USA). The sequence of the primers targeting human BRCA1, BRCA2, RAD51, BARD1, XRCC6, and XRCC5 are as follows: BRCA1 sense 5′-[…]-3′, BRCA1 antisense 5′-[…]-3′, BRCA2 sense 5′-[…]-3′, BRCA2 antisense 5′-[…]-3′, RAD51 sense 5′-[…]-3′, RAD51 antisense 5′-[…]-3′, BARD1 sense 5′-[…]-3′, BARD1 antisense 5′-[…]-3′, XRCC6 sense 5′-[…]-3′, XRCC6 antisense 5′-[…]-3′, XRCC5 sense 5′-[…]-3′,and XRCC5 antisense 5′-[…]-3′. β-actin was used as a housekeeping gene for normalization. The cDNA was quantified using real-time PCR with SYBR Green/fluorescein qPCR master mix (ThermoScientific, Carlsbad, CA, USA) on a Lightcycler 96 system (Roche Diagnostics, Mannheim, Germany) according to the manufacturer’s protocol.
For orientation: Real-time PCR tracks product formation cycle by cycle.

The test system of assay [4] is H1299 cells. The experiment in a line: qPCR of DNA damage repair genes and STAT5 mRNA. To be noted: 24 h.
Text: as §3

SMILES strings stand for the structures.

With `CC(C)(C)c1cc(NC(=O)Nc2ccc(-c3cn4c(n3)sc3cc(OCCN5CCOCC5)ccc34)cc2)no1` [quizartinib, reference compound], the viability (usually a read-out of living cells in per cent, often relative to untreated cells) at 0.16 µM in the assay on A549 cells [1] (Homo sapiens, 120 h, Olaparib 0, Quizartinib 0.16 μM, 5 days, panel B, read-out: Relative viability) was found to be 93.1%; in the assay with H1299 cells [2] (Homo sapiens, NCI-H1299, 120 h, Olaparib 0, Quizartinib 0.16 μM, 5 days, panel B, read-out: Relative viability), 104%. Besides, the viability at 0.32 µM with A549 cells [1] (Homo sapiens, 120 h, Olaparib 0, Quizartinib 0.32 μM, 5 days, panel B, read-out: Relative viability) was 91.8%; in the assay with H1299 cells [2] (Homo sapiens, NCI-H1299, 120 h, Olaparib 0, Quizartinib 0.32 μM, 5 days, panel B, read-out: Relative viability), 105%. Besides, the viability at 0.63 µM worked out at 93.9% in the assay on A549 cells [1] (Homo sapiens, 120 h, Olaparib 0, Quizartinib 0.63 μM, 5 days, panel B, read-out: Relative viability) and 106% with H1299 cells [2] (Homo sapiens, NCI-H1299, 120 h, Olaparib 0, Quizartinib 0.63 μM, 5 days, panel B, read-out: Relative viability). In addition, the viability at 1.25 µM in the assay on A549 cells [1] (Homo sapiens, 120 h, Olaparib 0, Quizartinib 1.25 μM, 5 days, panel B, read-out: Relative viability) came to 92.6%; with H1299 cells [2] (Homo sapiens, NCI-H1299, 120 h, Olaparib 0, Quizartinib 1.25 μM, 5 days, panel B, read-out: Relative viability) it was 92.7%. Also, the viability at 2.5 µM was found to be 87.5% in the assay on A549 cells [1] (Homo sapiens, 120 h, Olaparib 0, Quizartinib 2.50 μM, 5 days, panel B, read-out: Relative viability) and 87.3% in the assay with H1299 cells [2] (Homo sapiens, NCI-H1299, 120 h, Olaparib 0, Quizartinib 2.50 μM, 5 days, panel B, read-out: Relative viability). In addition, the viability at 5 µM with A549 cells [1] (Homo sapiens, 120 h, Olaparib 0, Quizartinib 5.00 μM, 5 days, panel B, read-out: Relative viability) came out at 77.8%; in the assay with H1299 cells [2] (Homo sapiens, NCI-H1299, 120 h, Olaparib 0, Quizartinib 5.00 μM, 5 days, panel B, read-out: Relative viability), 65.8%. For the same compound, the viability at 10 µM stood at 64.6% with A549 cells [1] (Homo sapiens, 120 h, Olaparib 0, Quizartinib 10.00 μM, 5 days, panel B, read-out: Relative viability) and 32.1% in the assay on H1299 cells [2] (Homo sapiens, NCI-H1299, 120 h, Olaparib 0, Quizartinib 10.00 μM, 5 days, panel B, read-out: Relative viability). Further, the “Growth inhibition” value in the assay with A549 cells [1] (MTT, five days) is “slightly inhibited the proliferation”; in the assay with H1299 cells [2] (MTT, five days), “slightly inhibited the proliferation”; with BEAS2B cells it was “slightly inhibited the proliferation”; in the assay with CCD18-Lu cells, “slightly inhibited the proliferation”; in the assay on H460 cells, “slightly inhibited the proliferation”. Also, the “Expression level of STAT5 mRNA” value in the assay with A549 cells [3] and with H1299 cells [4] was “decreased the expression” in each case. Moreover, the “mRNA levels of HR (BRCA1, BRCA2, BARD1, RAD51) and NHEJ (XRCC5, XRCC6) genes” value in the assay with A549 cells [3] and with H1299 cells [4] was “decreased the expression” in each case.
